# Results from ChEMBL document CHEMBL1201862, “PubChem BioAssay data set” (2004).
# The source made the active and inactive calls.
# Experiments:
# [1] = biological target: E3 ubiquitin-protein ligase Mdm2 (Homo sapiens, UniProt Q00987); experiment: enhancers of MDM2-luciferase reporter signal, concentration-effect titration, project on inhibitors of MDM2 ubiquitin ligase, cellular assay, luminescent readout, 384-well plate format (AID 1394); assay type: functional;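 also: MDM2 E3 inhibitors raise luminescence so EC50 is for signal enhancement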
# [2] = inhibitors of Vif binding to APOBEC3G peptide, primary screen, biochemical, TR-FRET, GST-Vif 1-94, biotin-A3G peptide, dose response retest (AID 1117319); assay type: functional;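 also: TR-FRET signal of purified GST-Vif binding a biotinylated A3G peptide; inhibitors lower the FRET signal by blocking Vif and A3G binding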
# [3] = A cytotoxicity screen of small molecule inhibitors of the PhoP region in Salmonella typhi identified in the primary screen. [Related pubchem assays: 1850, 1864, 1985 ]; assay type: functional
# Procathepsin L = Procathepsin L (Homo sapiens, UniProt P07711); experiment: cathepsin L inhibitors, dose response, counter-screen for M1/M17 aminopeptidase inhibitor project, biochemical, QFRET, 1536-well (AID 2214)
# Aspartyl aminopeptidase = biological target: T1, Aspartyl aminopeptidase (Plasmodium falciparum 3D7, UniProt Q8I2J3); experiment: Counterscreen for inhibitors of M1 and M17 aminopeptidases: QFRET-based biochemical high throughput dose response assay for inhibitors of the Plasmodium falciparum M18 Aspartyl Aminopeptidase (PFM18AAP). [Related PubChem assays: 1619 (Screening assay (M17LAP inhibitors).), 1445 (Screening assay (M1AAP inhibitors).)]
# T1 sequence (Q8I2J3 whole entry): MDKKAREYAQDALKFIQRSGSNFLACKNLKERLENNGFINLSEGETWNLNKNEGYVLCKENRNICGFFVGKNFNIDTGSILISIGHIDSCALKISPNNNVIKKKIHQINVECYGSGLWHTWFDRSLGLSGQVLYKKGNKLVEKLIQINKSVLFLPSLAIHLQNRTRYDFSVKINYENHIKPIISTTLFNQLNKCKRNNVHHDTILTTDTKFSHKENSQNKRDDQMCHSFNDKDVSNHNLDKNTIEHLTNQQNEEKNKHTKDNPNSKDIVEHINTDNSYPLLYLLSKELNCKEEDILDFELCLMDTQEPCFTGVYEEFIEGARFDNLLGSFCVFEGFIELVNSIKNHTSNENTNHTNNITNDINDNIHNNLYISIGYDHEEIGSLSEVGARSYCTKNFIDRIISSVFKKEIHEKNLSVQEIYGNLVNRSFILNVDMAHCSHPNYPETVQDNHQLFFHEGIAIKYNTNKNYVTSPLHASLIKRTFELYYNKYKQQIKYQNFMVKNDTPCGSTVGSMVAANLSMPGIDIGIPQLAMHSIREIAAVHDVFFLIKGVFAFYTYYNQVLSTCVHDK
# Leucine aminopeptidase = biological target: T2, Leucine aminopeptidase (Plasmodium falciparum 3D7, UniProt Q8IL11); experiment: P. falciparum M17LAP inhibitors, primary screen, biochemical, fluorogenic H-Leu-NHMec substrate, 1536-well (AID 1619); assay type: functional
# T2 sequence (Q8IL11 whole entry): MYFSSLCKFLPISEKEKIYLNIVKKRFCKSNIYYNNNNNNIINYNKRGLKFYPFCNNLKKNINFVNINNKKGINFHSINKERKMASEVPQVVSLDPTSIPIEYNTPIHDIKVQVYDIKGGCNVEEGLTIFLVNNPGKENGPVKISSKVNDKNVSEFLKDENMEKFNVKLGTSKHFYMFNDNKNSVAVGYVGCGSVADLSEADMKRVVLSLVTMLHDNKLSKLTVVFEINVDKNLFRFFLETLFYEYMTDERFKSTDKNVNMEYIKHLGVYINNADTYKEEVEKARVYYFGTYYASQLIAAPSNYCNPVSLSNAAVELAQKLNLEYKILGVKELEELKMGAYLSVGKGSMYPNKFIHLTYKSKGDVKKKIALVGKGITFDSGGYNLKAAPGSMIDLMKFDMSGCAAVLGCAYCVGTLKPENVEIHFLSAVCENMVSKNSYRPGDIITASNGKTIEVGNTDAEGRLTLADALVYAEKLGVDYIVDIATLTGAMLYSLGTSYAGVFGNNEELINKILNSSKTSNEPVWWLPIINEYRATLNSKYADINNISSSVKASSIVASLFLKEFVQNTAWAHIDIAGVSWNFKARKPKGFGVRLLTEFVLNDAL
# Protein Tat = biological target: T3, Protein Tat (Human immunodeficiency virus type 1 group M subtype B (isolate HXB2)(HIV-1), UniProt P04608); assay type: functional;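 also: tat binding to TAR RNA read out by fluorescence polarization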
# T3 sequence (P04608 whole entry): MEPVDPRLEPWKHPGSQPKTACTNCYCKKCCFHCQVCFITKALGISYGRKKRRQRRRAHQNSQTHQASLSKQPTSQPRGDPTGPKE
# [4] = HCT116 cell viability decrease, GSK3B pretreatment – CellTiter-Glo, IC50, dose response (AID 1117339); assay type: functional; conditions: HCT-116
# [5] = RKO cell viability reduction, dose response, CellTiter-Glo luminescence (AID 1117322); assay type: functional
# [6] = CellTiter-Glo luminescent dose response of DLD-1 viability loss (AID 1117352); assay type: functional
# [7] = cytotoxicity toward HCT116 cells – cell-based, CellTiter-Glo luminescence, IC50, dose response (AID 1117332); assay type: functional; conditions: HCT-116
# [8] = Concentration-dependent survival of SW480 colon cancer line, luminescence detection with CellTiter-Glo, half-maximal inhibitory concentration (AID 1117338); assay type: functional
# [9] = cytotoxicity toward HT-29 cells – cell-based, CellTiter-Glo luminescence, IC50, dose response (AID 1117330); assay type: functional
# [10] = cytotoxicity toward Colo320 cells – cell-based, CellTiter-Glo luminescence, IC50, dose response (AID 1117334); assay type: functional; conditions: COLO 320
# [11] = SNU-C1 cell viability reduction, dose response, CellTiter-Glo luminescence (AID 1117323); assay type: functional, cell-based
# [12] = NIH:OVCAR-3 ovarian cancer cell cytotoxicity, dose response, PAX8 inhibitor project, plate reader, dry powder samples (AID 743044); assay type: functional, cell-based
# [13] = cytotoxicity in OVCAR8 ovarian cancer cells, dose response, PAX8 project, cell-based, plate reader, dry powder samples (AID 743197); assay type: functional; conditions: OVCAR-8
# [14] = IGROV1 ovarian cancer cell cytotoxicity, dose response, PAX8 inhibitor project, plate reader, dry powder samples (AID 743043); assay type: functional, cell-based; conditions: IGROV-1
# Paired box protein Pax-8 = Paired box protein Pax-8 (Homo sapiens, UniProt Q06710); experiment: inhibitors of PAX8-driven TPO luciferase reporter, dose response, RMG-I cells, cherry-pick (AID 687027); assay type: functional, cell-based;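 also: luciferase reporter driven by Pax8 target thyroperoxidase promoter measured by SteadyGlo luminescence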
# Vasopressin V1b receptor = Vasopressin V1b receptor (Homo sapiens, UniProt P47901); experiment: Late-stage results from the probe development effort to identify antagonists of arginine vasopressin receptor 1a (AVPR1a): fluorescence-based cell-based dose response AVPR1b inhibition counterscreen assay.; assay type: functional
# [15] = Late-stage results from the probe development effort to identify antagonists of arginine vasopressin receptor 1a (AVPR1a): fluorescence-based cell-based dose response OXTR inhibition counterscreen assay.; assay type: functional
# Vasopressin V2 receptor = Vasopressin V2 receptor (Homo sapiens, UniProt P30518); experiment: Late-stage results from the probe development effort to identify antagonists of arginine vasopressin receptor 1a (AVPR1a): fluorescence-based cell-based dose response AVPR2 inhibition counterscreen assay.; assay type: functional
# [16] = Late-stage results from the probe development effort to identify antagonists of arginine vasopressin receptor 1a (AVPR1a): fluorescence-based cell-based dose response AVPR1a inhibition assay.; assay type: functional
# [17] = P. falciparum Dd2 growth inhibitors, dose response, SYBR Green, dry powder samples, set 9 (AID 1159568); assay type: functional, cell-based
# [18] = Dose-response inhibition of insulin secretion in a rat insulinoma line at 5 mM glucose (AID 1117331); assay type: functional, cell-based; conditions: INS-1E
# Cytochrome P450 1A2 = biological target: T4, Cytochrome P450 1A2 (Homo sapiens, UniProt P05177);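 also: PubChem cytochrome P450 panel assay, CYP1A2 panel member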
# T4 sequence (P05177 whole entry): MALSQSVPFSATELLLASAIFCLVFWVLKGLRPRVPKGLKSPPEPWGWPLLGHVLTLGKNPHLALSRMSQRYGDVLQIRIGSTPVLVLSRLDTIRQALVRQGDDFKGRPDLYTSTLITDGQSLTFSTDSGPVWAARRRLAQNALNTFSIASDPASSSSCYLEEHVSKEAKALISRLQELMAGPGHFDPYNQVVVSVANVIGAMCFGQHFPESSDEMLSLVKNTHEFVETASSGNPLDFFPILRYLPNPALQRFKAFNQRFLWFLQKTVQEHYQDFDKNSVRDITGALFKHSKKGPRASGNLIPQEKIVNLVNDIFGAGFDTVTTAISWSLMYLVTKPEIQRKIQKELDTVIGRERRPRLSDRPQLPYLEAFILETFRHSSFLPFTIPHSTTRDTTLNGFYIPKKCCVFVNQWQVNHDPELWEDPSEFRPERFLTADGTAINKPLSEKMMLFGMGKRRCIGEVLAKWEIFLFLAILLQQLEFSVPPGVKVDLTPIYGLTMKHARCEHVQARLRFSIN
# Chain of E3 ubiquitin-protein ligase Mdm2 (Q00987 whole entry): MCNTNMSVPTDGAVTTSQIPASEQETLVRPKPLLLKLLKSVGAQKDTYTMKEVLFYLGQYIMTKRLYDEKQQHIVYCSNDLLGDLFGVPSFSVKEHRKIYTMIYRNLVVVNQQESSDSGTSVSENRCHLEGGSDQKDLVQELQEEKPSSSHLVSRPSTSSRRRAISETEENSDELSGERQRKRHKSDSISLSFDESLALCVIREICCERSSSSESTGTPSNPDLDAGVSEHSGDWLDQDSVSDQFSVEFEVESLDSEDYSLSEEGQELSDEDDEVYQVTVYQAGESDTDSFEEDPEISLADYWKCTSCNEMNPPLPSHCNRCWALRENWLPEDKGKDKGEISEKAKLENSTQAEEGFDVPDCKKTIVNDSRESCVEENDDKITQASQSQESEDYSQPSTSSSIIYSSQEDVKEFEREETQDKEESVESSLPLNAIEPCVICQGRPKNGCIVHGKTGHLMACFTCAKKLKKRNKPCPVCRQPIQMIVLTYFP
# Chain of Vasopressin V1b receptor (P47901 whole entry): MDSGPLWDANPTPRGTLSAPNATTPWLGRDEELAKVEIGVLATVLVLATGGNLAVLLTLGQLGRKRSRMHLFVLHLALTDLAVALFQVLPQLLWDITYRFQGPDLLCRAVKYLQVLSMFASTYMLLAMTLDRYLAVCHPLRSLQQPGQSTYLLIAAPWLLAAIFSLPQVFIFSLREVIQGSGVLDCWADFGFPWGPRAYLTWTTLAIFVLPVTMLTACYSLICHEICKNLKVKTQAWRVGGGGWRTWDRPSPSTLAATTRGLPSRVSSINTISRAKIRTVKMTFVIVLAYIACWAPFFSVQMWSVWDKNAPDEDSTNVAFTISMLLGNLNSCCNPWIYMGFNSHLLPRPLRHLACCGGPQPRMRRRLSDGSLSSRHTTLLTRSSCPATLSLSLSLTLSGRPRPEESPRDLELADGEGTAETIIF
# Chain of Procathepsin L (P07711 whole entry): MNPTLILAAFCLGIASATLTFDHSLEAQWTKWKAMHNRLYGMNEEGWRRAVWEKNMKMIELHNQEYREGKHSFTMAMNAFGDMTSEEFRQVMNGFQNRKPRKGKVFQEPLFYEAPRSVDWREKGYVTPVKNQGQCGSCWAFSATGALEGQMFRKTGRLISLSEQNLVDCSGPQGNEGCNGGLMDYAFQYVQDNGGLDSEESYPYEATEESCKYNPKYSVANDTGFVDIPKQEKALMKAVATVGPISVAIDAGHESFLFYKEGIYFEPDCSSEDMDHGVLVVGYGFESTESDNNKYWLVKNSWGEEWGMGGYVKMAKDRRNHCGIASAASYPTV
# Chain of Vasopressin V2 receptor (P30518 whole entry): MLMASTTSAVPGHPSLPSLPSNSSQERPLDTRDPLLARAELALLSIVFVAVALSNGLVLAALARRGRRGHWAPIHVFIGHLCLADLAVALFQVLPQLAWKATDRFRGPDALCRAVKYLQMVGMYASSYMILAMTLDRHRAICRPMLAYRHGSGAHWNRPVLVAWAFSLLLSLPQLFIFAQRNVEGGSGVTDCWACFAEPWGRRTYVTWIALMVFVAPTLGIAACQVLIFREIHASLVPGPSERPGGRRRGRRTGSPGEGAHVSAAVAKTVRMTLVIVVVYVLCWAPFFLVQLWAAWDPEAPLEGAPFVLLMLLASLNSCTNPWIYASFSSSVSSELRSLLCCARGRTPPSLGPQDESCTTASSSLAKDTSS
# Chain of Paired box protein Pax-8 (Q06710 whole entry): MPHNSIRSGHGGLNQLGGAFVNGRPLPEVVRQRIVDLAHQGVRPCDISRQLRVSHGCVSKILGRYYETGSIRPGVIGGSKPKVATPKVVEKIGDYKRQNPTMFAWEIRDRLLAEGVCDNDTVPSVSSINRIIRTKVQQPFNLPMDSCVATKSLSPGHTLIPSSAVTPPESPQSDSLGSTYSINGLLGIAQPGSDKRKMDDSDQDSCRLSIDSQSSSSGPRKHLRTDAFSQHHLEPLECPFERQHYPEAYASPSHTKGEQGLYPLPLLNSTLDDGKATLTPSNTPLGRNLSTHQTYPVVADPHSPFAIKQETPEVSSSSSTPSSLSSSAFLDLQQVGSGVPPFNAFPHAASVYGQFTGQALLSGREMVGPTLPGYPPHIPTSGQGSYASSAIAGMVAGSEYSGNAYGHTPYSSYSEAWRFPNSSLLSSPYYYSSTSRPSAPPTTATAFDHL
smiles,measurement,setting,value
Cc1ccc(C)c(NC(=O)C(Sc2nnc(-c3cccs3)o2)c2ccccc2)c1 (stereo not given),EC50,[1],25 µM (not active)
COC(=O)c1ccc(CSc2nc3ccccc3c(=O)n2-c2ccc(OC)c(OC)c2)o1,IC50,[2],> 100 µM (active)
same,EC50,[3],> 50 µM (active)
Cc1cccc(Nc2nnc(SC3CCOC3=O)s2)c1C (stereo not given),IC50,Procathepsin L,> 59.6 µM (not active)
same,IC50,Aspartyl aminopeptidase,> 73.5 µM (not active)
same,IC50,Leucine aminopeptidase,2.23 µM (active)
CCOc1ccc(Nc2nc3ccccc3n3nnnc23)cc1,IC50,Protein Tat,> 100 µM (active)
same,IC50,[2],> 100 µM (active)
N=C(NN=Cc1ccc(Cl)cc1)NN=Cc1ccc(Cl)cc1,IC50,[4],0.344 µM (active)
same,IC50,[5],0.47 µM (active)
same,IC50,[6],0.654 µM (active)
same,IC50,[7],0.394 µM (active)
same,IC50,[8],0.225 µM (active)
same,IC50,[9],0.681 µM (active)
same,IC50,[10],0.458 µM (active)
same,IC50,[11],0.28 µM (active)
Cc1ccc(S(=O)(=O)N(C)C[C@H]2OCCCC[C@H](C)Oc3ccc(NS(=O)(=O)c4ccc(F)cc4)cc3C(=O)N([C@H](C)CO)C[C@@H]2C)cc1,AC50,[12],29.3 µM (active)
same,AC50,[13],> 70 µM (inactive)
same,AC50,[14],67.9 µM (active)
same,AC50,Paired box protein Pax-8,3.32 µM (active)
Cc1ccnc(N2CCC(C(=O)N(CC3CC3)c3ccc(Cl)cc3)CC2)c1,IC50,Vasopressin V1b receptor,18.2 µM (inactive)
same,IC50,[15],9.1 µM (active)
same,IC50,Vasopressin V2 receptor,13.6 µM (inactive)
same,IC50,[16],0.0052 µM (active)
CN1c2ccc(C#Cc3cccnc3)cc2[C@@H]2[C@@H](CCN2C(=O)c2cccc(F)c2)[C@@H]1CO,AC50,[17],4.46 µM (active)
O=C1NCN(c2ccccc2)C12CCN(CCCOc1ccc(F)cc1)CC2 [SPIRAMIDE],IC50,[4],5.33 µM (inactive)
same,IC50,[5],5.31 µM (inactive)
same,IC50,[6],0.882 µM (active)
same,IC50,[7],8.82 µM (inactive)
same,IC50,[8],4.61 µM (active)
same,IC50,[18],> 33.3 µM (inactive)
same,IC50,[9],2.46 µM (active)
same,AC50,Cytochrome P450 1A2,39.8 µM (inconclusive)
same,IC50,[10],11.8 µM (inactive)
same,IC50,[11],0.242 µM (active)
